Data reported in ChEMBL document CHEMBL1201862, “PubChem BioAssay data set” (2004).
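Following 48 hours of exposure in 96-well plates, responses at five concentrations were used to interpolate endpoints linearly. Here, GI50 denotes the concentration required for 50% inhibition of growth.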 The source made the active and inactive calls. No stated cut-off is given here; in the data, active = GI50 up to about 1.1 µM and inactive = higher.

Tests used:
Assay in all cases: DTP human tumour cell line panel, 48 h
[1] = tested on: OVCAR-3
[2] = tested on: SNB-19
[3] = tested on: TK-10
[4] = tested on: COLO 205
[5] = tested on: NCI-H460
[6] = tested on: LOX IMVI
[7] = tested on: NCI-H522
[8] = tested on: SN12C
[9] = tested on: MCF7
[10] = tested on: OVCAR-8
[11] = tested on: 786-0
[12] = tested on: CCRF-CEM
[13] = tested on: MOLT-4
[14] = tested on: UACC-257
[15] = tested on: IGROV-1
[16] = tested on: SF-539
[17] = tested on: K562
[18] = tested on: PC-3
[19] = tested on: CAKI-1
[20] = tested on: SK-MEL-2
[21] = tested on: SK-OV-3
[22] = tested on: KM12
[23] = tested on: HCT-116
[24] = tested on: T47D
[25] = tested on: EKVX
[26] = tested on: OVCAR-5
[27] = tested on: SW-620
[28] = tested on: HL-60
[29] = tested on: DU-145
[30] = tested on: SF-268
[31] = tested on: SK-MEL-28
[32] = tested on: UO-31
[33] = tested on: NCI/ADR-RES
[34] = tested on: Hs-578T
[35] = tested on: SNB-75
[36] = tested on: SR
[37] = tested on: HT-29
[38] = tested on: SK-MEL-5
[39] = tested on: MDA-N
[40] = tested on: NCI-H226
[41] = tested on: SF-295
[42] = tested on: MDA-MB-231
[43] = tested on: ACHN
[44] = tested on: M14
[45] = tested on: RPMI-8226
[46] = tested on: A549
[47] = tested on: HOP-62
[48] = tested on: MDA-MB-435
[49] = tested on: U-251
[50] = tested on: OVCAR-4
[51] = tested on: RXF 393
[52] = tested on: Malme-3M
[53] = tested on: HOP-92
[54] = tested on: HCC 2998
[55] = tested on: NCI-H23
[56] = tested on: HCT-15
[57] = tested on: UACC-62
[58] = tested on: A498
[59] = tested on: BT-549

Measured: GI50

CC1(C)CC(=O)c2c(nc3c(ccc4ccccc43)c2-c2ccc(NC(=O)CCCCCCCCC(=O)Nc3ccc(-c4c5c(nc6c4ccc4ccccc46)CC(C)(C)CC5=O)cc3)cc2)C1
inactive: [1] > 100 µM | [2] > 100 µM | [3] > 100 µM | [4] > 100 µM | [5] > 100 µM | [6] > 100 µM | [7] > 100 µM | [8] > 100 µM | [9] > 100 µM | [10] > 100 µM | [11] > 100 µM | [12] > 100 µM | [13] > 100 µM | [14] > 100 µM | [16] > 100 µM | [17] > 100 µM | [18] > 100 µM | [19] > 100 µM | [20] > 100 µM | [21] > 100 µM | [22] > 100 µM | [23] > 100 µM | [24] > 100 µM | [25] > 100 µM | [26] > 100 µM | [27] > 100 µM | [28] > 100 µM | [29] > 100 µM | [30] > 100 µM | [31] > 100 µM | [32] > 100 µM | [33] > 100 µM | [34] > 100 µM | [35] > 100 µM | [36] > 100 µM | [37] > 100 µM | [38] > 100 µM | [39] > 100 µM | [40] > 100 µM | [41] > 100 µM | [42] > 100 µM | [43] > 100 µM | [44] > 100 µM | [45] > 100 µM | [46] > 100 µM | [47] > 100 µM | [48] > 100 µM | [49] > 100 µM
active: [15] 0.017 µM

[O-][S+](c1ccccc1)C1CC2CC3(CCC21O)OCCO3 (stereo not given)
inactive: [50] > 100 µM | [1] > 100 µM | [51] > 100 µM | [52] > 100 µM | [2] > 100 µM | [3] > 100 µM | [53] > 100 µM | [4] > 100 µM | [54] > 100 µM | [55] > 100 µM | [5] > 100 µM | [6] > 100 µM | [7] > 100 µM | [9] > 100 µM | [10] > 100 µM | [11] > 100 µM | [12] > 100 µM | [13] > 100 µM | [14] > 100 µM | [15] > 100 µM | [17] > 100 µM | [18] > 100 µM | [19] > 100 µM | [20] > 100 µM | [21] > 100 µM | [22] > 100 µM | [57] > 100 µM | [24] > 100 µM | [58] > 100 µM | [25] > 100 µM | [26] > 100 µM | [27] > 100 µM | [28] > 100 µM | [29] > 100 µM | [30] > 100 µM | [31] > 100 µM | [32] > 100 µM | [33] > 100 µM | [34] > 100 µM | [35] > 100 µM | [36] > 100 µM | [37] > 100 µM | [38] > 100 µM | [39] > 100 µM | [40] > 100 µM | [41] > 100 µM | [42] > 100 µM | [43] > 100 µM | [44] > 100 µM | [45] > 100 µM | [46] > 100 µM | [47] > 100 µM | [48] > 100 µM | [49] > 100 µM
> 100 µM: [56]

CN(C)CCSC1=Nc2ccc(Cl)cc2C(c2ccccc2Cl)=NC1
inactive: [50] > 100 µM | [13] 31.4 µM | [15] 92.5 µM | [17] 34.6 µM | [20] > 100 µM | [59] 42.3 µM | [28] 30.3 µM | [34] 21.4 µM | [35] 30.1 µM | [48] 17.9 µM

C=CC1(C)OC2(CCN(C(=O)OCC)CC2)OC1C (stereo not given)
inactive: [50] > 100 µM | [1] > 100 µM | [51] > 100 µM | [52] > 100 µM | [2] > 100 µM | [3] > 100 µM | [53] > 100 µM | [4] > 100 µM | [54] > 100 µM | [55] > 100 µM | [5] > 100 µM | [6] > 100 µM | [7] > 100 µM | [9] > 100 µM | [10] > 100 µM | [11] > 100 µM | [12] > 100 µM | [13] 34.8 µM | [14] > 100 µM | [15] > 100 µM | [16] > 100 µM | [17] 45.7 µM | [18] > 100 µM | [19] > 100 µM | [20] > 100 µM | [21] > 100 µM | [22] > 100 µM | [57] > 100 µM | [24] > 100 µM | [58] > 100 µM | [25] > 100 µM | [26] > 100 µM | [27] > 100 µM | [28] > 100 µM | [29] > 100 µM | [30] > 100 µM | [31] > 100 µM | [32] > 100 µM | [33] > 100 µM | [34] > 100 µM | [35] > 100 µM | [36] > 100 µM | [37] > 100 µM | [38] > 100 µM | [39] > 100 µM | [40] > 100 µM | [41] > 100 µM | [42] > 100 µM | [43] > 100 µM | [44] > 100 µM | [45] > 100 µM | [46] > 100 µM | [47] > 100 µM | [48] > 100 µM | [49] > 100 µM
> 100 µM: [56]

C[C@H]1C[C@H](C)c2ccccc2N(C)/C1=N\c1ccccc1
inactive: [50] > 100 µM | [1] 28.1 µM | [51] 34.6 µM | [52] 22.6 µM | [2] 37.8 µM | [3] 18.6 µM | [53] 8.51 µM | [4] 18.4 µM | [54] 39.2 µM | [55] 20.4 µM | [5] 15.8 µM | [6] 13.7 µM | [8] 36.6 µM | [9] 25.1 µM | [10] 43.2 µM | [11] 22.9 µM | [13] 22.5 µM | [14] 20.3 µM | [15] 21.9 µM | [16] 30.2 µM | [17] 66.7 µM | [18] 29.9 µM | [19] 63.1 µM | [20] 20.5 µM | [22] 43.3 µM | [57] 23.5 µM | [23] 13.3 µM | [24] 32.8 µM | [58] 25.2 µM | [25] 25.5 µM | [26] 21.4 µM | [27] 61.5 µM | [28] 3.93 µM | [29] 92 µM | [30] 56 µM | [31] 28.1 µM | [32] 39 µM | [33] 27.2 µM | [34] 24.7 µM | [35] 57.1 µM | [36] 24.4 µM | [37] 4.58 µM | [38] 16.7 µM | [39] 23.4 µM | [40] 24.5 µM | [41] 26.4 µM | [42] 14.8 µM | [43] 34.4 µM | [44] 21.5 µM | [45] 36.7 µM | [46] 34.7 µM | [47] 19.3 µM | [48] 20.4 µM
37.2 µM: [56]

CC1(C)[N+]([O-])=[N+]([O-])C1(C)Br (stereo not given)
inactive: [50] > 100 µM | [1] > 100 µM | [51] 43.8 µM | [2] > 100 µM | [3] > 100 µM | [4] > 100 µM | [54] > 100 µM | [55] > 100 µM | [5] > 100 µM | [6] > 100 µM | [7] > 100 µM | [8] > 100 µM | [9] > 100 µM | [10] > 100 µM | [11] > 100 µM | [12] > 100 µM | [13] > 100 µM | [14] > 100 µM | [15] > 100 µM | [16] > 100 µM | [17] > 100 µM | [18] > 100 µM | [19] > 100 µM | [20] > 100 µM | [21] > 100 µM | [22] > 100 µM | [57] > 100 µM | [23] > 100 µM | [25] > 100 µM | [26] > 100 µM | [59] > 100 µM | [27] > 100 µM | [30] > 100 µM | [31] > 100 µM | [32] > 100 µM | [33] 65.8 µM | [34] > 100 µM | [35] > 100 µM | [36] 91 µM | [37] > 100 µM | [38] > 100 µM | [40] > 100 µM | [41] 82.4 µM | [42] > 100 µM | [43] > 100 µM | [44] > 100 µM | [46] > 100 µM | [47] > 100 µM | [48] > 100 µM | [49] > 100 µM
> 100 µM: [56]
